Reference: patent US7517517B2 (Janssen Pharmaceutica N.V., priority 2002, dated 2009)

Assays:
rat mGlu5 receptor [1] = biological target: T1, rat mGlu5 receptor (Rattus norvegicus, UniProt P31424); experiment: Intracellular Ca2+ response in rat mGlu5 receptor expressing CHO-dhfr− cells (FLIPR); format: cell-based; settings: tested up to a concentration of 10 μM
T1 construct: host or cells: CHO-dhfr- cells
Experimental: L929sA cells stably expressing the human mGlu1a receptor were obtained as described in Lavreysen et al., Mol. Pharmacol. 61:1244-1254, 2002 and were cultured in Glutamax-I medium supplemented with 10% heat inactivated dialysed foetal calf serum, 0.1 mg/ml streptomycin sulphate and 100 units/ml penicillin. CHO-dhfr^− cells stably expressing the rat mGlu1a, -2, -3, -4, -5 and -6 receptor were a kind gift from S. Nakanishi (Tokyo University, Japan) and were grown in DMEM with Glutamax-I with 10% heat inactivated dialysed foetal calf serum, 0.4 mM L-prolin, 0.2 mg/ml streptomycin sulphate and 200 units/ml penicillin. Cells were kept in an atmosphere of 37° C. and 5% CO2.
Intracellular calcium ion levels ([Ca^2+]i) in human mGlu1a receptor expressing L929sA cells were measured using the Fluorometric Imaging Plate Reader (FLIPR, Molecular Devices, CA, USA), as described in Lavreysen et al., Mol. Pharmacol. 61:1244-1254, 2002. The same procedure was followed for CHO-dhfr^− cells expressing the rat mGlu1a receptor. For the rat mGlu5 receptor, cells were seeded at 30.000 cells/well 2 days before the experiment.

rat mGlu1a receptor [2] = biological target: T2, rat mGlu1a receptor (Rattus norvegicus, UniProt P23385); experiment: [3H]Compound A binding to rat mGlu1a receptor CHO-dhfr− membranes (saturation, kinetics, inhibition); settings: mean ± SD of 3–4 experiments
T2 construct: host or cells: CHO-dhfr- cells

rat mGlu4 receptor = biological target: T3, rat mGlu4 receptor (Rattus norvegicus, UniProt P31423); experiment: [35S]GTPγS binding to membranes from CHO-dhfr− cells expressing the rat mGlu4 receptor; format: biochemical
T3 construct: host or cells: CHO-dhfr- cells
Experimental: (§1) Confluent cells were washed in ice-cold phosphate-buffered saline and stored at −20° C. until membrane preparation. After thawing, cells were suspended in 50 mM Tris-HCl, pH 7.4 and collected through centrifugation for 10 min at 23,500 g at 4° C. The cells were lysed in 10 mM hypotonic Tris-HCl, pH 7.4. After recentrifugation for 20 min at 30,000 g at 4° C., the pellet was homogenized with an Ultra Turrax homogenizer in 50 mM Tris-HCl, pH 7.4. Protein concentrations were measured by the Bio-Rad protein assay using bovine serum albumin as standard.
(§2) Membranes were thawed on ice and diluted in 10 mM HEPES acid, 10 mM HEPES salt, pH 7.4, containing 100 mM NaCl, 3 mM MgCl2, 3 μM GDP and 10 μg/ml saponine. Assay mixtures contained 10 μg of membrane protein and were pre-incubated with compounds or buffer for 5 min at 37° C. […] [^35S]GTPγS was added to a final concentration of 0.1 nM for another 30 min at 37° C. Reactions were terminated by rapid filtration through Unifilter-96 GF/B filter plates (Packard, Meriden, Conn.) using a 96-well Packard filtermate harvester. Filters were washed 2 times with ice-cold 10 mM NaH2PO4/10 mM Na2HPO4 buffer, pH 7.4. Filter-bound radioactivity was counted in a Microplate Scintillation and Luminesence Counter from Packard.

rat mGlu1a receptor [3] = biological target: T2, rat mGlu1a receptor; experiment: [3H]quisqualate binding to rat mGlu1a receptor CHO-dhfr− membranes (saturation, inhibition)
rat mGlu6 receptor = biological target: T4, rat mGlu6 receptor (Rattus norvegicus, UniProt P35349); experiment: [35S]GTPγS binding to membranes from CHO-dhfr− cells expressing the rat mGlu6 receptor; format: biochemical
T4 construct: host or cells: CHO-dhfr- cells
Experimental: as §1, §2

rat mGlu1a receptor [4] = biological target: T2, rat mGlu1a receptor; experiment: IP response (basal IP accumulation) in rat mGlu1a receptor expressing CHO-dhfr− cells; format: cell-based
rat mGlu1a receptor [5] = biological target: T2, rat mGlu1a receptor; experiment: Intracellular Ca2+ response in rat mGlu1a receptor expressing CHO-dhfr− cells (FLIPR); format: cell-based
[6] = tested on: glutamate site of the NMDA receptor; experiment: [3H]CGP39653 binding to rat forebrain membranes; settings: [3H]CGP39653, rat forebrain; tested up to 10 μM
Experimental: (§3) Tissue preparation. Male Wistar rats (˜200 g) were sacrificed by decapitation. The brains were rapidly removed and forebrain was dissected. The tissue was homogenized with an Ultra Turrax in 20 volumes of ice-cold H2O and was centrifuged at 48,000 g for 20 min. After homogenisation using a DUAL homogeniser, membranes were washed by centrifugation at 48,000 g for 10 min. The pellet was then suspended in 20 volumes of 50 mM Tris-HCl, pH 7.4 containing 0.04% Triton X-100 and again centrifuged at 48,000 g for 20 min. The final pellet was frozen at −80° C.
(§4) In vitro binding assay. At the day of the experiment, the pellet was thawed, washed and rehomogenised using a DUAL in ice-cold 50 mM Tris-acetate, pH 7.4. Assay conditions for the different radioligands were as follows. The final concentration of membrane in the assay was 20 mg/ml (wet weight) for [^3H]Ro 48-8587 and [^3H]L689560 and was 10 mg/ml (wet weight) for [^3H]CGP39653 and [^3H]MK-801. Radioligand concentrations of 2 nM [^3H]Ro 48-8587, 2 nM [^3H]L689560, 2 nM [^3H]CGP39653 and 3 nM [^3H]MK-801 were used. […] For [^3H]L689560 and [^3H]MK-801 binding, 100 μM D-serine or 10 μM phencyclidine were used to define non-specific binding, respectively. […] Radioactivity collected on the filters was counted as above.

AMPA receptor = experiment: [3H]Ro 48-8587 binding to rat forebrain membranes; settings: [3H]Ro 48-8587, rat forebrain; tested up to 10 μM
Experimental: as §3, §4

human mGlu1a receptor = biological target: T5, human mGlu1a receptor (Homo sapiens, UniProt Q13255); experiment: Intracellular Ca2+ response in human mGlu1a receptor expressing L929sA cells (FLIPR); format: cell-based
T5 construct: expressed in transfected cells; host or cells: L929sA cells

rat mGlu3 receptor = biological target: T6, rat mGlu3 receptor (Rattus norvegicus, UniProt P31422); experiment: [35S]GTPγS binding to membranes from CHO-dhfr− cells expressing the rat mGlu3 receptor; format: biochemical
T6 construct: host or cells: CHO-dhfr- cells
Experimental: as §1, §2

rat mGlu2 receptor = biological target: T7, rat mGlu2 receptor (Rattus norvegicus, UniProt P31421); experiment: [35S]GTPγS binding to membranes from CHO-dhfr− cells expressing the rat mGlu2 receptor; format: biochemical
T7 construct: host or cells: CHO-dhfr- cells
Experimental: as §1, §2

[7] = biological target: T8, glycine site of the NMDA receptor (Rattus norvegicus, UniProt P35439); experiment: [3H]L689560 binding to rat forebrain membranes; settings: [3H]L689560, rat forebrain; tested up to 10 μM
T8 construct: from tissue; host or cells: rat forebrain membranes
Experimental: as §3, §4

rat mGlu5 receptor [8] = biological target: T1, rat mGlu5 receptor; experiment: [3H]MPEP binding to rat mGlu5 receptor CHO-dhfr− membranes; settings: rat mGlu5 receptor containing membranes; positive control
[9] = read-out: IC50 for inhibition of glutamate-induced [35S]GTPγS activation
[10] = ratio of IC50 values, rat mGlu1a Ca2+ assay

T4 sequence (P35349 24-871): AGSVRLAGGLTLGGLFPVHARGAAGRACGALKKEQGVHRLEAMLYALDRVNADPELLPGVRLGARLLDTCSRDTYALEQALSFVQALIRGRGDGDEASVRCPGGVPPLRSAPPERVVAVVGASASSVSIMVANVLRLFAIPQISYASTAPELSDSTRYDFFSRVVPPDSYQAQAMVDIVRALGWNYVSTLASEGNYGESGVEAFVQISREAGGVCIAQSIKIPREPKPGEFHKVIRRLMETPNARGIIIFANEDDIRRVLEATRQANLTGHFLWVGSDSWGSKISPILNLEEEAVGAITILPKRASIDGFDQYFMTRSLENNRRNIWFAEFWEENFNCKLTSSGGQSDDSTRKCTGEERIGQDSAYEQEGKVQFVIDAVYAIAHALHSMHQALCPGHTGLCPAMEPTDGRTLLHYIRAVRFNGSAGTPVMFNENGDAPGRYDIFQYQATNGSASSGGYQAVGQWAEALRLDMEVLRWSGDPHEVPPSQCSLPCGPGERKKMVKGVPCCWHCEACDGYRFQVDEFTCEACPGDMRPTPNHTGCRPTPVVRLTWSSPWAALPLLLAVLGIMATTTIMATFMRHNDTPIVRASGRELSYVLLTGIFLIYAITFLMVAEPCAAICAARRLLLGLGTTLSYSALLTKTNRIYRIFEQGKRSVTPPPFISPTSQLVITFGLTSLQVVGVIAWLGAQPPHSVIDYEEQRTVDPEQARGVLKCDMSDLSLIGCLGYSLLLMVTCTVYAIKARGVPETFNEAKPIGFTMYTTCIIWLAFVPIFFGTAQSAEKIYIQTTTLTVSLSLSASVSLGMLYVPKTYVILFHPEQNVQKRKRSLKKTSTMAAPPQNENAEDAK
T2 sequence (P23385 19-1199): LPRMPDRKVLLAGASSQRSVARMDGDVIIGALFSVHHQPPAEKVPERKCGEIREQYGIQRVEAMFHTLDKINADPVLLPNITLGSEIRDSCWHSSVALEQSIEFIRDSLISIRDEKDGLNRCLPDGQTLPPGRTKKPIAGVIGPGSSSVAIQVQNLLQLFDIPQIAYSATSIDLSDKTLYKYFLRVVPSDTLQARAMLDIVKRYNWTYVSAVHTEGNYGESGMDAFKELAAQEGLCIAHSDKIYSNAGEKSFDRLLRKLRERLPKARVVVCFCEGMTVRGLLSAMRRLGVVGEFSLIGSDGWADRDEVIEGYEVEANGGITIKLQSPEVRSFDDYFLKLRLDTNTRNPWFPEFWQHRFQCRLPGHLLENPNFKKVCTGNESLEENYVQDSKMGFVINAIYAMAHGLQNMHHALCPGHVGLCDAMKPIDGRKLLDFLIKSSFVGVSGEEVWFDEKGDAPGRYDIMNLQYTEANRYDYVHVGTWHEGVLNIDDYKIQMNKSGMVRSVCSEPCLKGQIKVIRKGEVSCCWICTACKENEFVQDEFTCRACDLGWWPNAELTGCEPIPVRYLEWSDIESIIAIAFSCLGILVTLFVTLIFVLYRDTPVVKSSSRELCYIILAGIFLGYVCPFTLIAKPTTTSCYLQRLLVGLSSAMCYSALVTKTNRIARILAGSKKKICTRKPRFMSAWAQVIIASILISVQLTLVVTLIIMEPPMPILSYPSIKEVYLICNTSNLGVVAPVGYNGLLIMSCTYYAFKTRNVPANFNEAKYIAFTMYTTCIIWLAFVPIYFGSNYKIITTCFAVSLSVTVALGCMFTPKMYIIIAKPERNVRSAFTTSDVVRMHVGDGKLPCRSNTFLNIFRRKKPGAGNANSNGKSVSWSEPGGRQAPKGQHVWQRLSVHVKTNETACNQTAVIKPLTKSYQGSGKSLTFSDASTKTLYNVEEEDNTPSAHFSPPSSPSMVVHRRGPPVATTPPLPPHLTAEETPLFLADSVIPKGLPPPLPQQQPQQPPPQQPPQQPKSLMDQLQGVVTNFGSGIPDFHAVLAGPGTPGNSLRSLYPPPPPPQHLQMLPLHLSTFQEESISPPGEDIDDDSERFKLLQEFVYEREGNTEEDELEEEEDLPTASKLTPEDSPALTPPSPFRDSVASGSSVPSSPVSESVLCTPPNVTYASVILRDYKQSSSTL
T6 sequence (P31422 23-879): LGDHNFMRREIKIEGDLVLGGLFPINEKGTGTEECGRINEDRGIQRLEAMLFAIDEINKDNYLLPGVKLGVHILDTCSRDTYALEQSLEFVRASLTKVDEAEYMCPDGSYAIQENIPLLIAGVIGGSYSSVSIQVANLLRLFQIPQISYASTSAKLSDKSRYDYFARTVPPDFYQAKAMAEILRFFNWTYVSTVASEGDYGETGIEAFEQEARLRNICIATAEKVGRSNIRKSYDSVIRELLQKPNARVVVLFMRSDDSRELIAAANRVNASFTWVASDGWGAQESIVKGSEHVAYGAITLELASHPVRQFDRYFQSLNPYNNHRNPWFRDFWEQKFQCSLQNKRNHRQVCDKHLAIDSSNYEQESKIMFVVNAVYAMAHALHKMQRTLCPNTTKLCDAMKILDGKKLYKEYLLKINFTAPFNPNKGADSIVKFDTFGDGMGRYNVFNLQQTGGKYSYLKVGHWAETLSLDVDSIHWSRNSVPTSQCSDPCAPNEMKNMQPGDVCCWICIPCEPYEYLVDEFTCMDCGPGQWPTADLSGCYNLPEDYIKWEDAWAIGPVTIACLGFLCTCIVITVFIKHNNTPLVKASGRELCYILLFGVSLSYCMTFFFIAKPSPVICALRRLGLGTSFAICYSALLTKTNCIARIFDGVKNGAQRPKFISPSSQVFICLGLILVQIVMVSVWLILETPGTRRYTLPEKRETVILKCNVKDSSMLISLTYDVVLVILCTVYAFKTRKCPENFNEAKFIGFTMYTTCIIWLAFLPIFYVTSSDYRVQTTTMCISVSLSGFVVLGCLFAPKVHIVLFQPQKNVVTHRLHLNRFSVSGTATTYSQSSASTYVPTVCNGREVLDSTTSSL
T3 sequence (P31423 33-912): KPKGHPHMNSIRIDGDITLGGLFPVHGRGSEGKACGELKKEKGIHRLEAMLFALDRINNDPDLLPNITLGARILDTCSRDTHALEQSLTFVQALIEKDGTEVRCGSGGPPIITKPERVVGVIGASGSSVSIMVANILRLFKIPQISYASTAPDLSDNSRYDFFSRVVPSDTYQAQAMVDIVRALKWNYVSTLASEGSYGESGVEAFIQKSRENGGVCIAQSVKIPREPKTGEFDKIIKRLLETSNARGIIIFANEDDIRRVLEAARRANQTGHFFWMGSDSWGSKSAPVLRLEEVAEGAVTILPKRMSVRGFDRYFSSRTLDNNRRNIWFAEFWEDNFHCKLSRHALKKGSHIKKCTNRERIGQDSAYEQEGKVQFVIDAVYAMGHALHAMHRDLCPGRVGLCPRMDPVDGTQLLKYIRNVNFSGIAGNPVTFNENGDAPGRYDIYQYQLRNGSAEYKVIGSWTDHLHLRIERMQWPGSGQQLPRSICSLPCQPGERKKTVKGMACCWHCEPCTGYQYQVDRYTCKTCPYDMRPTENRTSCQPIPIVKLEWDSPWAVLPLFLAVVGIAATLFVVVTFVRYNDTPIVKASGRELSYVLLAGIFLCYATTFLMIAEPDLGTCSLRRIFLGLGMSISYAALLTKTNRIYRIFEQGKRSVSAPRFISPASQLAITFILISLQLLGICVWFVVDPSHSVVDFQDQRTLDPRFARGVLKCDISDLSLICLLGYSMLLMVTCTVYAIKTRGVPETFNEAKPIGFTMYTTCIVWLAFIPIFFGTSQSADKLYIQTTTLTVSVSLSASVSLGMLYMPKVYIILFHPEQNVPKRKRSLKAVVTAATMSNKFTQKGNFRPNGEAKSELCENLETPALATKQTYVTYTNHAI
T7 sequence (P31421 19-872): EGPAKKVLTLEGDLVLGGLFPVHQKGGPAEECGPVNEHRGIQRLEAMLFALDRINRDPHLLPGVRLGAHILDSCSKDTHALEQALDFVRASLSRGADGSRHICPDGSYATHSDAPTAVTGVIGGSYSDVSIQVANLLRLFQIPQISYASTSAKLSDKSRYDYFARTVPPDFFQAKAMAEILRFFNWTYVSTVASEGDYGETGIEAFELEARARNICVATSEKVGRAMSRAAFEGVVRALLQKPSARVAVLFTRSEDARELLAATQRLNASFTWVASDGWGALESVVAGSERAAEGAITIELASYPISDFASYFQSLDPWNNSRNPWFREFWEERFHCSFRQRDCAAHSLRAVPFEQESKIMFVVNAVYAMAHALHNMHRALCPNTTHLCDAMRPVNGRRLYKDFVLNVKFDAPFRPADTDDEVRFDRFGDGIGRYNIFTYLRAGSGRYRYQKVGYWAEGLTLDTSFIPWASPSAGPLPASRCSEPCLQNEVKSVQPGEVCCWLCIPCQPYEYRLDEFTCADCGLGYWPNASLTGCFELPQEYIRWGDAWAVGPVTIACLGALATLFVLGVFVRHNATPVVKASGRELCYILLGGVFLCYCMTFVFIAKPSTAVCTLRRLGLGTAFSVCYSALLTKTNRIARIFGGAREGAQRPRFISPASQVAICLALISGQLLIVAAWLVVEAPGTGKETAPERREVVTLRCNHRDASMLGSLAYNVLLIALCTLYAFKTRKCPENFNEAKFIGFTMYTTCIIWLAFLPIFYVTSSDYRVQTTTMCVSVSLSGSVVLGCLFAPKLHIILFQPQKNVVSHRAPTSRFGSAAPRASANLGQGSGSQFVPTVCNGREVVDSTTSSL

With O=C(Cc1ccccc1)c1ccc2nc3c(cc2c1)CCCO3 [Compound A] as the compound, how does the “inhibition of glutamate-induced Ca2+ signaling” value (rat mGlu5 receptor [1]) read?
Its value is “did not inhibit”.

And the Ki (rat mGlu1a receptor [2]; 2.5 nM [3H]Compound A, 30 min at 4° C.)?
Its Ki is 1.35 ± 0.99 nM.

And the Hill coefficient (rat mGlu1a receptor [2]; inhibition of [3H]Compound A-binding)?
The Hill coefficient was 0.94 ± 0.04.

And the “glutamate Emax upon addition of compound (positive allosteric modulation)” value (shortened to “glutamate Emax upon addition of compound”) (rat mGlu4 receptor; 10 μM compound together with glutamate, rat mGlu4)?
The value was “not increased”.

What about the IC50 (rat mGlu4 receptor; [9]) of the same compound?
The IC50 was over 30 µM.

And the “agonist activity in [35S]GTPγS assay” value (rat mGlu4 receptor; up to 30 μM, rat mGlu4)?
The value was “did not exhibit agonist activity”.

And the Ki (rat mGlu1a receptor [3])?
Its Ki is over 1000 µM.

What about the “effect on [3H]quisqualate binding (in words)” value (rat mGlu1a receptor [3]; rat mGlu1a receptor CHO-dhfr− membranes) of the same compound?
Its value is “did not displace”.

What about the “glutamate Emax upon addition of compound” value (rat mGlu6 receptor; 10 μM compound together with glutamate, rat mGlu6) of the same compound?
Its value is “not increased”.

And the IC50 (rat mGlu6 receptor; [9])?
The IC50 was over 30 µM.

What about the “agonist activity in [35S]GTPγS assay” value (rat mGlu6 receptor; up to 30 μM, rat mGlu6) of the same compound?
Its value is “did not exhibit agonist activity”.

What about the “decrease of basal IP accumulation” value (rat mGlu1a receptor [4]; 1 μM compound, p<0.05) of the same compound?
Its value is 24±4%.

What about the “maximal decrease of basal IP accumulation” value (rat mGlu1a receptor [4]; 100 μM compound) of the same compound?
Its value is 33±3%.

What about the mode of antagonism (rat mGlu1a receptor [5]; glutamate concentration-response curve in absence and presence of compound (FIG. 1B)) of the same compound?
Its mode of antagonism is “non-competitive”.

What about the “inhibition of mGlu1a receptor-mediated signalling” value (rat mGlu1a receptor [5]; in the presence of 100 nM-1 μM compound) of the same compound?
Its value is “Complete inhibition”.

What about the “times more potent than BAY 36-7620” value (rat mGlu1a receptor [5]; [10]) of the same compound?
Its value is “about 8 times”.

And the “times more potent than CPCCOEt” value (rat mGlu1a receptor [5]; [10])?
Its value is about 500 times.

And the IC50 (rat mGlu1a receptor [5]; read-out: IC50, inhibition of the glutamate-induced increase in [Ca2+]i)?
Its IC50 is 0.0216 ± 0.005 µM.

What about the “binding to the glutamate site of the NMDA receptor” value [6] of the same compound?
The value was “nor did it bind”.

And the “binding to the AMPA receptor” value (AMPA receptor)?
The value was “did not bind”.

And the IC50 (human mGlu1a receptor)?
The IC50 was 0.0104 ± 0.0047 µM.

And the “glutamate Emax upon addition of compound” value (rat mGlu3 receptor; 10 μM compound together with glutamate, rat mGlu3)?
The value was “not increased”.

What about the IC50 (rat mGlu3 receptor; [9]) of the same compound?
Its IC50 is over 30 µM.

What about the “agonist activity in [35S]GTPγS assay” value (rat mGlu3 receptor; up to 30 μM, rat mGlu3) of the same compound?
The value was “did not exhibit agonist activity”.

And the “glutamate Emax upon addition of compound” value (rat mGlu2 receptor; 10 μM compound together with glutamate, rat mGlu2)?
The value was “not increased”.

And the IC50 (rat mGlu2 receptor; [9])?
The IC50 was over 30 µM.

And the “agonist activity in [35S]GTPγS assay” value (rat mGlu2 receptor; up to 30 μM, rat mGlu2)?
Its value is “did not exhibit agonist activity”.

What about the “binding to the glycine site of the NMDA receptor” value [7] of the same compound?
The value was “nor did it bind”.

Cc1cccc(C#Cc2ccccc2)n1 [[^3H]MPEP] was tested. Which specific binding (rat mGlu5 receptor [8]) did it give?
Its specific binding is 95%.
